Where two headings read alike, the source gives them in different places.
How the values were obtained:
[1] = system: Balb/c mice, TBI; assay: Estimation of dose reduction factor (DRF); type: in vivo, mouse
Procedure: Analysis of several TBI, 24-hr delayed administration of EC-18 at 250 mg/kg in Balb/c mice yields an estimate of the dose reduction factor (DRF) of EC-18.

[2] = system: Balb/c mice, TBI 6.5 Gy; assay: Survival in extreme LD100 TBI murine model (6.5 Gy); type: in vivo, mouse; settings: for Survival: 250 mg/kg/day 16 days
Procedure: Animals were treated orally with phosphate-buffered saline or EC-18 at 250 mg/kg/day for 16 days.

[3] = system: Balb/c mice, 6.11 Gy TBI; assay: Structural analog / calorie effect study: EC-18, PLH, olive oil in 6.11 Gy ARS model; type: in vivo, mouse; settings: 250 mg/kg daily
Procedure: Similarly, a structural analog efficacy study was conducted to identify the optimally functional molecule in the ARS murine model. The study was performed with the structural analog in which the acetyl group in EC-18 is replaced with a hydroxyl group (yielding palmitic linoleic hydroxyl glycerol, PLH) in 20 Balb/c mice (10 female and 10 male) per group. Mice were irradiated with TBI of 6.11Gy at day 0 and 250 mg/kg of EC-18 or PLH were given daily in-life.
The purpose of this study was to assess whether extra calories of EC-18 contribute to the enhanced survival in mice after exposure to a whole-body sublethal dose of γ-radiation. The study was performed with the structural analog in which the acetyl group in EC-18 is replaced with a hydroxyl group (yielding PLH) in a total of 100 BALB/c mice ([…]; 20 animals per study group) aged at 11 weeks. Mice were irradiated with TBI of 6.11Gy at day 0 and the same dosage (250 mg/kg) of EC-18, PLH, or olive oil (vehicle control) were given daily in-life.

[4] = Safety assessment in clinical trials; type: in vivo, human
Procedure: AEs that were observed involved mild symptoms unrelated to EC-18 administration. […] In the clinical studies with pancreatic cancer patients, there were no SAEs associated with EC-18 administered twice daily (BID) for a total of 1000 mg/day.

[5] = system: Pseudomonas aeruginosa K (PAK); assay: Co-culture of bone marrow-derived monocytes with PAK, CFU; type: cell-based; settings: 100 μg/mL 1 hr; PAK MOI 50
Procedure: Structural-Activity Relationship Work of EC-18 To assess the optimal structure of EC-18, structural-activity relationship work was examined. A total of five structural analogs of EC-18 were selected by changing one fatty acid chain structure (red boxes in FIG. 43) and evaluated in bone marrow-derived monocytes co-cultured with Pseudomonas aeruginosa K (PAK). All analogs along with EC-18 were inoculated with PAK at the multiplicity of infection (MOI) of 50 for 30 mins and then, treated for 1 hr at the dosage of 100 μg/mL.
As a measure of […], the colony-forming units (CFUs) from each group were examined.

[6] = Plasma and lymphatic concentrations of EC-18 in beagle dogs after single administration; type: in vivo, dog; settings: for Tmax / AUC(0-t) / half-life / Cmax: male, beagle, dog; for Tmax: po
Procedure: A single dose of EC-18 (1000, 2000, 4000 mg/kg by mouth or 100 mg/kg IV) was administered to male beagle dogs in fed condition and the concentration of EC-18 in plasma and lymph was measured using UHPLC-MS/MS.

[7] = In vitro plasma stability, human plasma; type: in vitro ADME; settings: Humans; 1 μM; 37° C.; n=3
Procedure: To assess the stability of EC-18 in plasma, the test material, or the standard reference material (test concentration 1 μM) was mixed with rat and human plasma and allowed to react for 1 hr at 37° C. Then, the residual EC-18 concentration was measured by LC-MS/MS. As standard reference materials, albendazole (a drug with high plasma stability) and vinpocetine (a drug with low plasma stability) were tested in parallel. When allowed to react with rat and human plasma for 1 hr, the residual EC-18 concentration in both rat and human plasma was >99% of the initial dose.

[8] = system: gemcitabine-treated mice; assay: Gemcitabine-induced neutropenia, PLAG with pegfilgrastim; type: in vivo, mouse
Procedure: In this work, neutrophil counts were compared in four groups of mice: control mice, gemcitabine-treated mice, gemcitabine/pegfilgrastim-treated mice, and gemcitabine/pegfilgrastim/PLAG-treated mice. Gemcitabine was administered intraperitoneally to induce neutropenia. On Day 0, pegfilgrastim was administered subcutaneously. PLAG (50 mg/kg) was orally administered every day during the treatment course. Blood was taken from the orbital sinuses on Days 0, 3, and 5, and neutrophils were counted. […] Pegfilgrastin is polyethylene glycol (PEG)-conjugated granulocyte colony-stimulating factor (PEGylated-G-CSF, pegfilgrastim).

CCCCC/C=C\C/C=C\CCCCCCCC(=O)OC(COC(C)=O)COC(=O)CCCCCCCCCCCCCCC (stereo not drawn) [EC-18, 1-palmitoyl-2-linoleoyl-3-acetylglycerol]
DRF at LD30/30 ([1]; 250 mg/kg): 1.45
DRF at LD70/30 ([1]; 250 mg/kg): 1.18
DRF at LD95/30 ([1]; 250 mg/kg): 1.05
LD Estimate LD30/30, Presence of EC-18 ([1]; 250 mg/kg): 5.26 Gy
LD Estimate LD50/30, Presence of EC-18 ([1]; 250 mg/kg): 5.50 Gy
LD Estimate LD70/30, Presence of EC-18 ([1]; 250 mg/kg): 5.76 Gy
LD Estimate LD95/30, Presence of EC-18 ([1]; 250 mg/kg): 6.09 Gy
Lethality, Presence of EC-18 ([1]; 6.11 Gy, 250 mg/kg 24-hr delayed): 6/40 (15%)
Lethality, Presence of EC-18 ([1]; 6.5 Gy, 250 mg/kg 24-hr delayed): 8/20 (40%)
Lethality, Presence of EC-18 ([1]; 7 Gy, 250 mg/kg): 10/10 (100%)
Lethality, Presence of EC-18 ([1]; 8 Gy, 250 mg/kg): 10/10 (100%)
Lethality, Presence of EC-18 ([1]; 10 Gy, 250 mg/kg): 4/4 (100%)
signs of subcutaneous hemorrhage ([2]; 250 mg/kg/day): markedly improved
Survival ([2]; started 24-hr post-irradiation): 65%
Survival ([2]; started 48-hr post-irradiation): 25%
No. of mice that survived/total [3]: 14/20
Survival [3]: 70%
Survival time of decedents, Mean ± SEM [3]: 23.7 ± 1.4 days
Survival time of decedents, Median [3]: 23.5 days
body weight loss induced by irradiation [3]: effectively prevented and rapidly recovered weight loss
increase in survival vs control and PLH-treated group [3]: 2 fold
survival compared to control group [3]: significant increase
adverse events ([4]; five clinical trials): no adverse events (AEs) that could be considered serious or severe
SAEs associated with EC-18 ([4]; pancreatic cancer patients, BID, total 1000 mg/day): no SAEs
accumulation ([4]; single- and multiple-dose 500 to 4000 mg): no accumulation with repeated-dosing was observed
colony-forming units (CFUs) vs other analogs or control groups [5]: significantly higher
F ([6]; 1000 mg/kg po, Plasma): 7.8%
F ([6]; 2000 mg/kg po, Plasma): 6.3%
F ([6]; 4000 mg/kg po, Plasma): 23.6%
Tmax ([6]; lymph, 1000 mg/kg, 1000 mg/kg po, Lymph, read-out: Tmax): 3.3 ± 0.9 h
Tmax ([6]; lymph, 1000 mg/kg, 1000 mg/kg po, lymph, read-out: median Tmax): 4 h
Tmax ([6]; lymph, 2000 mg/kg, 2000 mg/kg po, Lymph, read-out: Tmax): 3.3 ± 0.9 h
Tmax ([6]; lymph, 2000 mg/kg, 2000 mg/kg po, lymph, read-out: median Tmax): 4 h
Tmax ([6]; lymph, 4000 mg/kg, 4000 mg/kg po, Lymph, read-out: Tmax): 3.3 ± 1.9 h
Tmax ([6]; lymph, 4000 mg/kg, 4000 mg/kg po, lymph, read-out: median Tmax): 2 h
Tmax ([6]; plasma, 1000 mg/kg, 1000 mg/kg po, Plasma, read-out: Tmax): 1.3 h
Tmax ([6]; plasma, 2000 mg/kg, 2000 mg/kg po, Plasma, read-out: Tmax): 1.3 h
Tmax ([6]; plasma, 4000 mg/kg, 4000 mg/kg po, Plasma, read-out: Tmax): 6.7 h
AUC(0-t) ([6]; 100 mg/kg IV, Plasma): 7540 ± 1860 ng·h/mL
half-life ([6]; 100 mg/kg IV, Plasma): 13.9 ± 2.3 h
AUC(0-t) ([6]; 1000 mg/kg po, Lymph): 118000 ± 16700 ng·h/mL
Cmax ([6]; 1000 mg/kg po, Lymph): 35100 ± 5160 ng/mL
AUC(0-t) ([6]; 1000 mg/kg po, Plasma): 5800 ± 2810 ng·h/mL
Cmax ([6]; 1000 mg/kg po, Plasma): 1750 ± 710 ng/mL
AUC(0-t) ([6]; 2000 mg/kg po, Lymph): 389000 ± 125000 ng·h/mL
Cmax ([6]; 2000 mg/kg po, Lymph): 40100 ± 8620 ng/mL
AUC(0-t) ([6]; 2000 mg/kg po, Plasma): 9490 ± 3850 ng·h/mL
Cmax ([6]; 2000 mg/kg po, Plasma): 2110 ± 750 ng/mL
AUC(0-t) ([6]; 4000 mg/kg po, Lymph): 431000 ± 81300 ng·h/mL
Cmax ([6]; 4000 mg/kg po, Lymph): 46600 ± 1730 ng/mL
half-life ([6]; 4000 mg/kg po, Lymph): 3.3 ± 0.2 h
AUC(0-t) ([6]; 4000 mg/kg po, Plasma): 71100 ± 31700 ng·h/mL
Cmax ([6]; 4000 mg/kg po, Plasma): 6760 ± 3330 ng/mL
Residual Concentration Relative to the Initial Dose After Reaction for 1 hr in Plasma [7]: >99%
blood cell apoptosis and neutrophil release from bone marrow ([8]; PLAG 50 mg/kg): did not affect
pegfilgrastim-induced CXCR2 expression in neutrophils ([8]; PLAG 50 mg/kg): markedly decreased
neutrophil counts ([8]; gemcitabine/pegfilgrastim/PLAG 50 mg/kg oral daily, third day following pegfilgrastim): dramatically increased
